One compound from patent publication US20260232681A1, “CRYSTALLINE FORMS OF N-[4-[4-(4-MORPHOLINYL)-7H-PYRROLO[2,3-D]PYRIMIDIN-6- YL]PHENYL]-4-[[3(R)-[(L-OXO-2-PROPEN-L-YL)AMINO]-L-PIPERIDINYL]METHYL]-2-PYRIDINECARBOXAMIDE AS A COVALENT INHIBITOR OF MENIN-MLL INTERACTION” (BIOMEA FUSION, INC., priority 2023, published 2026) can be followed below.

Read-outs that look alike come from different tables or passages of the source.

In experiment [1] the test system is KRAS mutated cell lines (CRC, NSCLC, pancreatic). The experiment is described as follows: KRAS mutant cell line proliferation (CellTiter-Glo, four days). Type of experiment: cell-based, human. The following applies: for GI50: Homo sapiens. Here is the method:
The inhibitory effect on cell proliferation was investigated in the human pancreas KRAS mutated cell lines MIA PaCa-2, HuP-T4, HPAF-II, human lung KRAS mutated cell line NCI-H358, and human colon KRAS mutated cell lines SW837, SW60, and NCI-H747. […] Cells were grown by adhering to culture flasks, and maintained at 70%-80% confluency.
ATP is present in all metabolically active cells and is considered as a marker for viable cells. […] The cell proliferation assay was performed using a 96-well plate format.
Eight concentrations of test compound were assessed in duplicate for each experimental run. 100% cell proliferation is represented by the untreated cells (0.2% DMSO).
200 μL of cell suspension were added to each well of a 96-well plate.
Cell viability was measured using CellTiterGlo. […] Cell viability was measured using CellTiter Glo.
A general note: In ATP-based viability assays light output follows the ATP content of the culture.

Experiment [2] deals with streptozotocin (STZ) induced type II diabetes in Wistar Han rats. Nature of the experiment: Glycemic control in streptozotocin-induced diabetic rats (Examples 103, 105). The experiment is classed as in vivo, rat. As to the method:
The present example provides the ability of Compound 10 to restore glycemic control to streptozotocin (STZ) induced type II diabetes in Wistar Han rats. Fahmy et al., 2017, World J. Pharm. Med. Res. 3(3):37-39.
Control and test compounds were stored at 4° C. and prepared weekly as needed. The vehicle for positive control pioglitazone was 0.25% carboxymethylcellulose and 1% Tween® 80 in reverse osmosis deionized water. The vehicle for Compound 10 was 10% DMSO, 10% Solutol HS 15, and 80% (10% hydroxypropyl-β-cyclodextrin in 50 mM citrate buffer at pH 3.0). The vehicle for streptozotocin pretreatment was 0.1 M sodium citrate pH 4.5.
On Day −3, twenty-four Wistar Han rats (plus eight spare Wistar Han rats) were measured for body weight and non-fasting glucose. Starting on Day −42, D12451 Research Diet was provided ad libitum throughout the study, except during designated procedures, as was water. In order to minimize the effects of stress on blood glucose and body, all animals including the spares received daily sham doses with phosphate buffered saline pH 7.2 (dose volume 5 mL/kg) via gavage beginning on Study Day −5 to Day −1. 20% Glucose in drinking water (200 g/L) was provided ad libitum for 24 hr after streptozotocin injection on Day −14 and Day −7.
On Days −14 and −7, streptozotocin was administered at 30 mg/kg/day QD intraperitoneally. Starting on Day 1, control and test compound were administered on the following schedule.
On Days −7 to −1 and on Days 1, 8, and 14 non-fasting blood glucose was measured. On Day 15, an oral glucose tolerance test was administered. The animals were weighed and the animals were placed in clean cages without food. Access to water was provided throughout the procedure. The animals were fasted for five hours and a blood glucose measurement was determined. The animals were dosed via oral gavage with 2 g/kg glucose (10 mL/kg). Blood glucose was determined via venipuncture. The second drop of blood from the animal was placed on a hand-held glucometer (Abbott Alpha Trak) at the following times relative to the glucose dose: zero (just prior to glucose dose), 15, 30, 60, 90, and 120 min. Following the final blood glucose measurement, food was returned to the cages. On Day 17, 4-hour fasting glucose was measured. Serum samples were used to measure insulin by ELISA. Analysis was performed in one to three days of each collection. On Day 17, terminal blood collection was obtained at about 8 mL per animal and measured for blood glucose.
ZDF rats were treated daily with Compound 10, vehicle, or pioglitazone for sixteen days and monitored for an additional two weeks post-treatment until Day 29. STZ rat models were induced through pre-treatment of animals on a high-fat diet with low doses of streptozotocin at Day −14 and Day −7 prior to starting treatment at Day Zero until Day 16. ZDF and STZ rats were monitored for fasting blood glucose levels, oral glucose tolerance test (OGTT), insulin and C-peptide levels, HOMA-IR (Homeostatic Model Assessment of Insulin Resistance), blood lipemic levels, and body weight according to the schematic for each model below. ZDF rats were analyzed for indicated readouts for fifteen days post-treatment for OGTT at Day 29, and serum insulin and C-peptide at Day 31.
STZ Rat Model—three treatment groups 1. Vehicle; 2. Compound 10 at 175 mg/kg; and 3. Pioglitazone at 30 mg/kg; n=10 per group. […] Rats were monitored for the following parameters through dosing—body weight, blood glucose levels, and OGTT.

Take `C=CC(=O)N[C@@H]1CCCN(Cc2ccnc(C(=O)Nc3ccc(-c4cc5c(N6CCOCC6)ncnc5[nH]4)cc3)c2)C1` [Compound A, N-[4-[4-(4-morpholinyl)-7H-pyrrolo[2,3-d]pyrimidin-6-yl]phenyl]-4-[[3(R)-[(1-oxo-2-propen-1-yl)amino]-1-piperidinyl]methyl]-2-pyridinecarboxamide]: the GI50 in experiment [1] (column 1: KRAS G12C, NSCLC (8), read-out: KRAS G12C GI50) was in the range of 360 to 570 nM; in experiment [1] (column 5: RAS WT, Pancreatic (4), read-out: RAS WT GI50), 430 to 830 nM; in experiment [1] (column 8: KRAS G12D, Pancreatic (1) (second set of heads), read-out: KRAS G12D GI50), 370 to 570 nM. Besides, the “growth inhibition of KRAS-mutated cell lines compared to a known KRAS therapeutic” value in experiment [1] (all cancer cell types tested) is given as “significantly greater growth inhibition”. The inhibition of growth in experiment [1] (most of fourteen CRC, NSCLC and pancreatic KRAS mutated cell lines, four-day treatment) is recorded as more than 90%. In addition, the blood lipemic levels result in experiment [2] (STZ rats) was “Significant reductions”. In addition, the body weight result in experiment [2] (STZ rats) is listed as “Significant reductions”. In experiment [2] (STZ rats, after fifteen days of treatment), the “oral glucose tolerance test, glucose control” value was “significant glucose control”. In addition, in experiment [2] (STZ-induced diabetes model), the “insulin in the non-fasting state” value is “significant reduction”. Moreover, in experiment [2] (STZ-induced diabetes model, compared to vehicle and control), the non-fasting glucose entry was “sharp reduction”.

Usually GI50 stands for the concentration giving 50% growth inhibition. As usually defined, the inhibition of growth is the drop in the measured response relative to a control, in per cent.
